Legend:
Settings in all cases: incubation time: 72 h
DU-4475 [1] = assay: drug sensitivity score (DSS), CellTiter-Glo (DSS (AUC-based score)); higher = stronger drug effect (viability inhibition or cytotoxicity); extreme values may be limits of the assay
Outline: (§1)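 A drug sensitivity score was derived from the area under each fitted dose-response curve. Breast cancer cells (20 µl suspension) were seeded onto compound in 384-well plates, using 5 concentrations 10-fold apart over a compound-specific 10,000-fold range, and incubated 72 h. Readouts were CellTox Green fluorescence and then CellTiter-Glo luminescence, with every plate normalised to 0.1 % DMSO and a positive kill control.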

CAL-120 [2] = assay: as above
Outline: as §1

MFM-223 [3] = assay: as above
Outline: as §1

MDA-MB-231 [4] = assay: as above
Outline: as §1

HCC1143 [5] = assay: as above
Outline: as §1

MCF-10A [6] = assay: as above
Outline: as §1

CAL-148 [7] = assay: as above
Outline: as §1

SK-BR-3 = assay: as above
Outline: as §1

Hs578T = assay: as above
Outline: as §1

BT-549 [8] = assay: as above
Outline: as §1

MDA-MB-436 [9] = assay: as above
Outline: as §1

DU-4475 [10] = assay: drug sensitivity score (DSS), CellTox Green (DSS (AUC-based score)); higher = stronger drug effect (viability inhibition or cytotoxicity); extreme values may be limits of the assay
Outline: as §1

CAL-120 [11] = assay: as above
Outline: as §1

MFM-223 [12] = assay: as above
Outline: as §1

CAL-51 = assay: as above
Outline: as §1

BT-474 = assay: as above
Outline: as §1

MDA-MB-231 [13] = assay: as above
Outline: as §1

HDQ-P1 = assay: as above
Outline: as §1

HCC1143 [14] = assay: as above
Outline: as §1

MCF-10A [15] = assay: as above
Outline: as §1

CAL-148 [16] = assay: as above
Outline: as §1

HCC1599 = assay: as above
Outline: as §1

MDA-MB-468 = assay: as above
Outline: as §1

BT-549 [17] = assay: as above
Outline: as §1

MDA-MB-436 [18] = assay: as above
Outline: as §1

MDA-MB-453 = assay: as above
Outline: as §1

CAL-85-1 = assay: as above
Outline: as §1

Compound	drug sensitivity score (DU-4475 [1])	drug sensitivity score (CAL-120 [2])	drug sensitivity score (MFM-223 [3])	drug sensitivity score (MDA-MB-231 [4])	drug sensitivity score (HCC1143 [5])	drug sensitivity score (MCF-10A [6])	drug sensitivity score (CAL-148 [7])	drug sensitivity score (SK-BR-3)	drug sensitivity score (Hs578T)	drug sensitivity score (BT-549 [8])	drug sensitivity score (MDA-MB-436 [9])	drug sensitivity score (DU-4475 [10])	drug sensitivity score (CAL-120 [11])	drug sensitivity score (MFM-223 [12])	drug sensitivity score (CAL-51)	drug sensitivity score (BT-474)	drug sensitivity score (MDA-MB-231 [13])	drug sensitivity score (HDQ-P1)	drug sensitivity score (HCC1143 [14])	drug sensitivity score (MCF-10A [15])	drug sensitivity score (CAL-148 [16])	drug sensitivity score (HCC1599)	drug sensitivity score (MDA-MB-468)	drug sensitivity score (BT-549 [17])	drug sensitivity score (MDA-MB-436 [18])	drug sensitivity score (MDA-MB-453)	drug sensitivity score (CAL-85-1)
COc1cccc2c1C(=O)c1c(O)c3c(c(O)c1C2=O)C[C@@](O)(C(C)=O)C[C@@H]3O[C@H]1C[C@H](N)[C@H](O)[C@H](C)O1 [Daunorubicin]	7.7	4.35	1.59	6.97	3.23	2.11	10	6.15	4.81	9.34	6.85	0	0	0	5.74	0	0	0	0	0	0	0	4.94	0	1.42	0	0
CN1CCN(c2ccc3nc(-c4c(N)c5c(F)cccc5[nH]c4=O)[nH]c3c2)CC1 [Dovitinib]	0	0.000114	0	0	0	0	0	0	0	0	0	0	0	0	0	0	0.731	0	0	0	0	0	0	0	0	0	0
C[C@@H]1C=C2C(=O)O[C@@H]3CC[C@H](C1)[C@]23O [Galiellalactone]	0	0	0	0	0	0	0	0	0	2.89	0	0	0	0	0	0	0	0	0	0	0	0	0	0	0	0	1.02
COC1=C2C[C@@H](C)C[C@H](OC)[C@H](O)[C@@H](C)/C=C(\C)[C@H](OC(N)=O)[C@@H](OC)/C=C\C=C(/C)C(=O)NC(=CC1=O)C2=O [Geldanamycin]	6.88	2.21	11.3	5.32	2.36	3.98	1.87	5.98	3.07	5.68	8.77	0.88	0	2.69	1.35	2.54	4.3	0	0	7.09	0	0	25	0	0	0	6.66
CS(=O)(=O)CCNCc1ccc(-c2ccc3ncnc(Nc4ccc(OCc5cccc(F)c5)c(Cl)c4)c3c2)o1 [Lapatinib]	0	0	0	0	0	4.31	0	10.8	0	0	0	0	0	0	0	0	1.62	0	0	2.1	2.94	0	0	0	0	1.15	0
CCOc1cc2ncc(C#N)c(Nc3ccc(OCc4ccccn4)c(Cl)c3)c2cc1NC(=O)/C=C/CN(C)C [Neratinib]	0	1.19	0.624	0	0	11	2.61	24.8	0	0	0	0	0	0	0	4.09	4.21	0	0	0	0.237	0	9.51	0	0	0	3.47
COc1ccc(C2=N[C@@H](c3ccc(Cl)cc3)[C@@H](c3ccc(Cl)cc3)N2C(=O)N2CCNC(=O)C2)c(OC(C)C)c1 [Nutlin-3]	0.984	0	0	0	0	0	0.553	0	0	0	0	0	0	0	13.1	0	0	0	0	0	1.15	0	0	0	0	0	0
COC1=CC(c2cc3ccccc3[nH]2)=N/C1=C\c1[nH]c(C)cc1C [Obatoclax]	0.576	0	0	7.72	0	0	0	1.08	0	5.4	1.64	0	0	0	6.54	0	12.7	0	0	0	0	0	0	0	0	0	0
COC(=O)C[C@](O)(CCCC(C)(C)O)C(=O)O[C@@H]1C(OC)=C[C@]23CCCN2CCc2cc4c(cc2[C@H]13)OCO4 [Omacetaxine]	30.6	19	22.1	21.2	22.4	22.1	19.9	23.4	26	26.7	27	0	1.24	18.3	0	0.916	7.01	3.97	0	13.3	6.49	0	3.61	4.27	1.54	0	29
CC(=O)O[C@H]1C(=O)[C@@]2(C)[C@H]([C@H](OC(=O)c3ccccc3)[C@]3(O)C[C@H](OC(=O)[C@H](O)[C@@H](NC(=O)c4ccccc4)c4ccccc4)C(C)=C1C3(C)C)[C@]1(OC(C)=O)CO[C@@H]1C[C@@H]2O [Paclitaxel]	10.4	13.2	16.5	17.3	20.9	19.8	18.3	33.6	23.7	24.3	21.1	0	2.71	13.7	22.7	12.7	25.5	0	0	21.4	7.75	0	26.9	9.38	7.09	0	23.2
O=C(c1ccc(OCCN2CCCCC2)cc1)c1c(-c2ccc(O)cc2)sc2cc(O)ccc12 [Raloxifene]	0	0	1.56	0	0	0	0	0	0	0	0	0	1.42	0	0	0	0	1.26	0	0	0	0.798	0	0	0	0	0
Cn1c(=O)c(F)c(Nc2ccc(I)cc2F)c2c(=O)n(C[C@@H](O)CO)cnc21 [TAK-733]	25.4	4.39	0.644	3.88	0	18.5	0	0	0	0.999	1.27	4.73	0.284	0	0	0	5.12	0	0	0	0	0	0	0	0	0	5.06
